The values that follow come from PubChem BioAssay AID675 (The Scripps Research Institute Molecular Screening Center, 2007).

This test concerns the target Nuclear receptor ROR-alpha (Homo sapiens) (UniProt P35398). The test can be described thus: RORA Gal4 reporter activation in CHO-K1 cells, dose response, counter-screen for SF-1 activator project, cell-based, Gal4-RORA LBD, luciferase luminescence (AID 675). For orientation: A counterscreen serves to expose hits that act by an unwanted route or on another target.

The structures appear in SMILES notation. pEC50: −log10 of the molar value. Active and inactive are the calls of the source.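 Rule for the calls: active = EC50 at or below a set limit for turning on the RORA orphan receptor reporter; inactive = the rest.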 A value given as a limit tells only on which side of the number the result lay.

Chain of Nuclear receptor ROR-alpha (Homo sapiens) (P35398 whole entry, looked up, the tested form may be a part): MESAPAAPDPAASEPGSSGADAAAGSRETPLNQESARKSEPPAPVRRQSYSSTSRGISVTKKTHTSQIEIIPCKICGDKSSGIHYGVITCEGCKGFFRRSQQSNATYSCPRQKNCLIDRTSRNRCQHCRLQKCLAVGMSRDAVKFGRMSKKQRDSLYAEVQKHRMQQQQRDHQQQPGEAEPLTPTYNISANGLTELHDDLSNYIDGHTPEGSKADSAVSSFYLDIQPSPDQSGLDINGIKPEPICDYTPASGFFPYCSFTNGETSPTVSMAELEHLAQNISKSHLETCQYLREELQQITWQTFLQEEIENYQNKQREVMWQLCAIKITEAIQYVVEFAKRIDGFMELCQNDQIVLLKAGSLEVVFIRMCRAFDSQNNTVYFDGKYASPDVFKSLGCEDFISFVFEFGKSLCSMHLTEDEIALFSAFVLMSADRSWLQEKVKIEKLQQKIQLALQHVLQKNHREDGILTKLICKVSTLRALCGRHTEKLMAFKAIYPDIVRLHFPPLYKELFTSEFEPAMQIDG

Broadly, the EC50 is the concentration giving half of the maximal effect. Regarding `O=C1CCCC(O)=C1C=Nc1ccc(O)cc1`, the EC50 was > 99 µM (inactive). One may read the pEC50 as −log10 of the EC50, conventionally taken in molar units. Take `Cc1ccc(C2/C(=C(\O)c3cnn(-c4ccccc4)c3C)C(=O)C(=O)N2CCN(C)C)o1` (stereo not drawn): the pEC50 was 5.38.

In the case of `COC(=O)c1ccc(/C(O)=C(\C#N)c2nc3ccccc3s2)cc1`, the pEC50 is 5.79. With `CC1(C)CC(=O)C(C=Nc2ccc3[nH]ncc3c2)=C(O)C1`, the pEC50 was 5.01. Turning to `CC1(C)CC(=O)C(C=Nc2ccccc2)=C(O)C1`, the EC50 is > 99 µM (inactive).

With `COc1cc(C2C3C(=O)N(c4ccccc4)C(=O)C3ON2c2ccccc2)ccc1O` (stereo not drawn), the EC50 is > 33 µM (inactive).

With `C/C(N)=C(/C#N)C(=O)CSc1ccc2c(c1)OCCO2`, the pEC50 was 5.93. `COc1ccc(C(=O)/C=C/Nc2cccc(C)n2)cc1OC`: the negative-log EC50 (pEC50) was 6.13.
